From patent publication US8957064B2, “Fused pyrimidines” (Bayer Intellectual Property GmbH, priority 2009, dated 2015)

Assays:
[1] = biological target: His-tagged human recombinant kinase full-length Akt1 (Homo sapiens (Human), UniProt P31749); experiment: Akt1 kinase assay (Akt1 TR-FRET assay, Biological Assay 1.0); assay type: biochemical; details: 10 μM ATP, 1 μM biotinylated peptide substrate, 60 min at 22° C.
Text: Biological Assay 1.0: Akt1 Kinase Assay
Akt1 inhibitory activity of compounds of the present invention may be quantified employing the Akt1 TR-FRET assay as described in the following paragraphs. His-tagged human recombinant kinase full-length Akt1 expressed in insect cells was purchased form Invitrogen (part number PV 3599). As substrate for the kinase reaction the biotinylated peptide biotin-Ahx-KKLNRTLSFAEPG (C-terminus in amide form) was used which can be purchased e.g. from the company Biosynthan GmbH (Berlin-Buch, Germany).
(§1) For the assay 50 nl of a 100 fold concentrated solution of the test compound in DMSO was pipetted into a black low volume 384 well microtiter plate (Greiner Bio-One, Frickenhausen, Germany), 2 μl of a solution of Akt1 in assay buffer [50 mM TRIS/HCl pH 7.5, 5 mM MgCl2, 1 mM dithiothreitol, 0.02% (v/v) Triton X-100 (Sigma)] were added and the mixture was incubated for 15 min at 22° C. to allow prebinding of the test compounds to the enzyme before the start of the kinase reaction. Then the kinase reaction was started by the addition of 3 μl of a solution of adenosine-tri-phosphate (ATP, 16.7 μM=>final conc. in the 5 μl assay volume is 10 μM) and substrate (1.67 μM=>final conc. in the 5 μl assay volume is 1 μM) in assay buffer and the resulting mixture was incubated for a reaction time of 60 min at 22° C. The concentration of Akt1 in the assay was adjusted depending of the activity of the enzyme lot and was chosen appropriate to have the assay in the linear range, typical enzyme concentrations were in the range of about 0.05 ng/μl (final conc. in the 5 μl assay volume).
(§2) The reaction was stopped by the addition of 5 μl of a solution of HTRF detection reagents (200 nM streptavidine-XL665 [Cisbio] and 1.5 nM anti-phosho-Serine antibody [Millipore, cat. #35-001] and 0.75 nM LANCE Eu-W 1024 labeled anti-mouse IgG antibody [Perkin Elmer]) in an aqueous EDTA-solution (100 mM EDTA, 0.1% (w/v) bovine serum albumin in 50 mM HEPES/NaOH pH 7.5).
(§3) The resulting mixture was incubated 1 h at 22° C. to allow the binding of the biotinylated phosphorylated peptide to the streptavidine-XL665 and the antibodies. Subsequently the amount of phosphorylated substrate was evaluated by measurement of the resonance energy transfer from the anti-mouse-IgG-Eu-Chelate to the streptavidine-XL665. Therefore, the fluorescence emissions at 620 nm and 665 nm after excitation at 350 nm was measured in a HTRF reader, e.g. a Rubystar (BMG Labtechnologies, Offenburg, Germany) or a Viewlux (Perkin-Elmer). The ratio of the emissions at 665 nm and at […] was taken as the measure for the amount of phosphorylated substrate. The data were normalised (enzyme reaction without inhibitor=0% inhibition, all other assay components but no enzyme=100% inhibition).

[2] = biological target: His-tagged human recombinant kinase full-length Akt2 activated by PDK1 (Homo sapiens (Human), UniProt P31751); experiment: Akt2 kinase assay (Akt2 TR-FRET assay, Biological Assay 2.0); assay type: biochemical; details: 10 μM ATP, 1 μM biotinylated peptide substrate, 60 min at 22° C.
Sequence of His-tagged human recombinant kinase full-length Akt2 activated by PDK1 (P31751 whole entry): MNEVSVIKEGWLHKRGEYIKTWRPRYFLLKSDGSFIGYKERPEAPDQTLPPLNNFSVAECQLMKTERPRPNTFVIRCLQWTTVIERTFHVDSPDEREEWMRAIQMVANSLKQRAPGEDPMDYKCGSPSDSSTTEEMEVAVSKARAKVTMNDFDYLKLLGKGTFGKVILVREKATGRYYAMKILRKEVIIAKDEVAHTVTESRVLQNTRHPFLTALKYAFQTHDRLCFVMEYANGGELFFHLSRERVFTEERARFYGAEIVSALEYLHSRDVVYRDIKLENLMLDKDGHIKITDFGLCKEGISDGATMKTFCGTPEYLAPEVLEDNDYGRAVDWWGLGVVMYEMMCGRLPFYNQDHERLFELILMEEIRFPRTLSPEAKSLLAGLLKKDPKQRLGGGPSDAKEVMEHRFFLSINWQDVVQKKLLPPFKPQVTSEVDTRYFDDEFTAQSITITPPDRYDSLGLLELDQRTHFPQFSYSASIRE
Text: Biological Assay 2.0: Akt2 Kinase Assay
Akt2 inhibitory activity of compounds of the present invention was quantified employing the Akt2 TR-FRET assay as described in the following paragraphs.
His-tagged human recombinant kinase full-length Akt2 expressed in insect cells and activated by PDK1 was purchased form Invitrogen (part number PV 3975). As substrate for the kinase reaction the biotinylated peptide biotin-Ahx-KKLNRTLSFAEPG (C-terminus in amide form) was used which can be purchased e.g. from the company Biosynthan GmbH (Berlin-Buch, Germany).
as §1, with “Akt2” for “Akt1”, “0.2” for “0.05”
as §2
as §3, with “TR-FRET” for “HTRF”

Sequence of His-tagged human recombinant kinase full-length Akt1 (P31749 whole entry): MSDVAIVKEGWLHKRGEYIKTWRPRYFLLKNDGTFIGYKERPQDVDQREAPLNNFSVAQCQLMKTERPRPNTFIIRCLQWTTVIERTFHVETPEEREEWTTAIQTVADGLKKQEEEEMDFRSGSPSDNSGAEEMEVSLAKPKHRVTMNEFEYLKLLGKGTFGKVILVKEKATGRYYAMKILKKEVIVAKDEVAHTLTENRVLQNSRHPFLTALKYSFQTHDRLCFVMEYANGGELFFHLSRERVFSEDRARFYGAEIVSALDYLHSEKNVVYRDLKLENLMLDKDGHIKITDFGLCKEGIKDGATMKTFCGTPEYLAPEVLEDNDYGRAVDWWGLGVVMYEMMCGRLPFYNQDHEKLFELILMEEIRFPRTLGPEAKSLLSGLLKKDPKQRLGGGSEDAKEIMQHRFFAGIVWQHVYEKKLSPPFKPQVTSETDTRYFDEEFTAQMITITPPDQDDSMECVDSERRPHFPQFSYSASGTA

Compound	IC50 [1] [µM]	IC50 [2] [µM]
c1ccc(-c2cn3ccnc3nc2-c2ccc(CN3CC(c4nnc(-c5ccccn5)[nH]4)C3)cc2)cc1 [Example 1.0, 6-phenyl-7-(4-{[3-(5-pyridin-2-yl-1,2,4-triazol-3-yl)azetidin-1-yl]methyl}phenyl)imidazo[1,2-a]pyrimidine]	< 0.05	< 0.5
c1ccc(-c2cn3nccc3nc2-c2ccc(CN3CCC(c4nc5cccnc5[nH]4)CC3)cc2)cc1 [Example 16.0, 2-{1-[4-(6-phenyl-pyrazolo[1,5-a]pyrimidin-5-yl)-benzyl]-piperidin-4-yl}-3H-imidazo[4,5-b]pyridine]	0.042	1.08
Fc1ccc(-c2cn3c(Cl)cnc3nc2-c2ccc(CN3CCC(c4n[nH]c(-c5ccccn5)n4)CC3)cc2)cc1 [Example 53.1, 3-chloro-6-(4-fluorophenyl)-7-{4-[4-(5-pyridine-2-yl-1H-[1,2,4]triazole-3-yl)-piperidine-1-ylmethyl]-phenyl}-imidazo[1,2-a]pyrimidine]	0.025	0.033
Cc1nc2nc(-c3ccc(CN4CCC(c5n[nH]c(-c6cnccn6)n5)CC4)cc3)c(-c3ccc(F)cc3F)cn2n1 [Example 50.2, 6-(2,4-difluorophenyl)-2-methyl-5-[4-{4-(5-pyrazine-2-yl-1H-[1,2,4]triazole-3-yl)-piperidine-1-ylmethyl]-phenyl}-[1,2,4]triazolo[1,5-a]pyrimidine]	0.355	1.1
Cc1cn2c(NC(C)C)c(-c3ccccc3)c(-c3ccc(CN4CC(c5n[nH]c(-c6ccccn6)n5)C4)cc3)nc2n1 [Example 64.0, isopropyl-(2-methyl-6-phenyl-7-{4-{3-[5-(pyridine-2-yl)-1H-[1,2,4]triazole-3-yl)-azetidine-1-ylmethyl]-phenyl}-imidazo[1,2-a]pyrimidin-5-yl)-amine]	0.03	0.039
Nc1ncnc2c1cnn2C1CCN(Cc2ccc(-c3nc4ccnn4cc3-c3ccccc3)cc2)CC1 [Example 19.0, 1-{1-[4-(6-phenyl-pyrazolo[1,5-a]pyrimidin-5-yl)-benzyl]-piperidin-4-yl}-1H-pyrazolo[3,4-d]pyrimidin-4-ylamine]	0.025	0.332
Fc1ccc2nc(C3CCN(Cc4ccc(-c5nc6ccnn6cc5-c5ccccc5)cc4)CC3)[nH]c2c1 [Example 18.0, 5-{4-[4-(6-fluoro-1H-benzimidazol-2-yl)-piperidin-1-ylmethyl]-phenyl}-6-phenyl-pyrazolo[1,5-a]pyrimidine]	0.042	1.09
Cc1nc2nc(-c3ccc(CN4CCC(c5n[nH]c(-c6ccccn6)n5)CC4)cc3)c(-c3cc(F)ccc3F)cn2n1 [Example 76.0, 6-(2,5-difluorophenyl)-2-methyl-5-{4-[4-(5-pyridine-2-yl-1H-[1,2,4]triazole-3-yl)-piperidine-1-ylmethyl]-phenyl}-[1,2,4]triazolo[1,5-a]pyrimidine]	0.06	0.154
Cc1nc2nc(-c3ccc(CN4CCC(c5nc6ccc(C(F)(F)F)cc6[nH]5)CC4)cc3)c(-c3ccccc3)cn2n1 [Example 21.0, 2-methyl-6-phenyl-5-{4-[4-(6-trifluoromethyl-1H-benzimidazol-2-yl)-piperidin-1-ylmethyl]-phenyl}-[1,2,4]-triazolo[1,5-a]pyrimidine]	1.45	2.5
CSc1nc2nc(-c3ccc(CN4CCC(c5n[nH]c(-c6cnccn6)n5)CC4)cc3)c(-c3ccccc3)cn2n1 [Example 72.3, 2-methylsulfanyl-6-phenyl-5-{4-[4-(5-pyrazin-2-yl-1H-[1,2,4]triazol-3-yl)-piperidin-1-ylmethyl]-phenyl}-[1,2,4]triazolo[1,5-a]pyrimidine]	0.026	0.08

Continued by falling IC50 [1], values first:

IC50 [1] [µM]	IC50 [2] [µM]	Compound
0.014	0.016	Cc1cccc(-c2nc(C3CN(Cc4ccc(-c5nc6nc(-c7ccccn7)nn6c(NC(C)C)c5-c5ccccc5)cc4)C3)n[nH]2)n1 [Example 69.0, isopropyl-(6-phenyl-2-pyridine-2-yl-5-{4-[3-[5-(6-methylpyridine-2-yl)-1H-[1,2,4]triazole-3-yl)-azetidine-1-ylmethyl]-phenyl}-[1,2,4]triazolo[1,5-a]pyrimidin-7-yl)-amine]
0.011	0.019	CNc1c(-c2ccccc2)c(-c2ccc(CN3CC(c4n[nH]c(-c5cccc(C)n5)n4)C3)cc2)nc2nc(C)cn12 [Example 61.0, methyl-(2-methyl-7-{4-{3-[5-(6-methylpyridine-2-yl)-1H-[1,2,4]triazole-3-yl)-azetidine-1-ylmethyl]-phenyl}-6-phenyl-imidazo[1,2-a]pyrimidin-5-yl)-amine]
0.01	0.017	COC(=O)c1cn2cc(-c3ccccc3)c(-c3ccc(CN4CC(c5n[nH]c(-c6ccccn6)n5)C4)cc3)nc2n1 [Example 74.1, 6-phenyl-7-{4-[3-[5-pyridine-2-yl-1H-[1,2,4]triazole-3-yl)azetidine-1-ylmethyl]-phenyl}-imidazo[1,2-a]pyrimidine-2-carboxylic acid methyl ester]
0.01	0.097	COc1nn2cc(-c3c(F)cccc3F)c(-c3ccc(CN4CCC(c5n[nH]c(-c6ccccn6)n5)CC4)cc3)nc2c1CO [Example 63.3, (6-(2,6-difluorophenyl)-2-methoxy-5-{4-[4-(5-pyridine-2-yl-1H-[1,2,4]triazole-3-yl)-piperidine-1-ylmethyl]-phenyl}-pyrazolo[1,5-a]pyrimidin-3-yl)-methanol]
0.008	0.034	COc1nn2cc(-c3c(F)cccc3F)c(-c3ccc(CN4CC(c5n[nH]c(-c6cccc(C)n6)n5)C4)cc3)nc2c1CO [Example 63.1]
0.006	0.014	Brc1cnc2nc(-c3ccc(CN4CC(c5n[nH]c(-c6ccccn6)n5)C4)cc3)c(-c3ccccc3)cn12 [Example 55.0, 3-bromo-6-phenyl-7-{4-{3-[5-(pyridine-2-yl)-1H-[1,2,4]triazole-3-yl)-azetidine-1-ylmethyl]-phenyl}-imidazo[1,2-a]pyrimidine]
0.005	0.004	CSc1nc2nc(-c3ccc(CN4CC(c5n[nH]c(-c6cccc(C)n6)n5)C4)cc3)c(-c3ccccc3)cn2n1 [Example 71.0, 5-(4-{3-[5-(6-methyl-pyridin-2-yl)-1H-[1,2,4]triazol-3-yl]-azetidin-1-ylmethyl}-phenyl)-2-methylsulfanyl-6-phenyl-[1,2,4]triazolo[1,5-a]pyrimidine]
